Drawing on PubChem BioAssay (NCI), this text covers TGI and GI50 for 19 compounds.

What all share (experiment): DTP human tumour cell line panel, 48 h
Assay [1] concerns SF-268 CNS.
For assay [2], the system named is LOX IMVI melanoma.
Assay [3] has as its system SW-620 colon.
Assay [4] relates to SK-OV-3 ovarian.
Assay [5] deals with ACHN renal.
The subject of assay [6] is HCT-116 colon.
The test system of assay [7] is RPMI-8226 leukemia.
For assay [8], the system named is MOLT-4 leukemia.
Assay [9] relates to M14 melanoma.

Molecules are shown by their SMILES. Where “and” joins values, the source holds several entries; their conditions need not be identical. Identical values can stand only once.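 Results reflect a 48-hour exposure of cells in 96-well plates to compound at five concentrations. Abbreviation: GI50, concentration required for 50% inhibition of growth. TGI: concentration producing complete growth inhibition.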

On to `CCOC(=O)/C(=C/c1cccc(OC)c1)N(CC)CC`, for which the TGI in [1], in assay [2], in assay [3], in [4], in assay [5] and in [6] was more than 100 µM each time. For the same compound, the total growth inhibition concentration (TGI) in assay [7], in assay [8] and in [9] was more than 100 µM each time.

Regarding `CC(C)c1ccccc1NC(=O)/C(Cl)=C1/Sc2ccccc2NC1=O`, the TGI in assay [1] was more than 100 µM; in [2], more than 100 µM; in assay [3], more than 100 µM; in assay [4] it was 66.6 µM; in [5], more than 100 µM; in [6], more than 100 µM. For the same compound, the figures for the TGI in assay [7], in [8] and in assay [9] were 58.8 µM, 79.8 µM and more than 100 µM, respectively.

Regarding `CCOC(=O)c1ccc(N[C@@H]2c3cc4c(cc3C(C3=CC(=O)C(=O)C(OC)=C3)[C@H]3C(=O)OCC32)OCO4)cc1` (some centres undefined), the TGI in assay [1] worked out at 10.4 µM; in [2], 11.4 µM; in [3], 20.1 µM; in assay [4], 6.77 µM; in [5], 3.86 µM; in assay [6], 18.7 µM. Moreover, the TGI was 66.8 µM in [7], more than 37.7 µM in assay [8] and 9.96 µM in assay [9].

With `Cc1ccc2nc3c(Cl)c(C)c(=O)cc-3sc2c1`, the GI50 is 43.6 µM in [1]; more than 100 µM in assay [4]; 39.7 µM in assay [5]; 39.6 µM in [6]; 37.7 µM in assay [9]. Further, the TGI in [1], in assay [2], in assay [3], in [4], in assay [5] and in [6] was more than 100 µM throughout. The TGI in assay [7], in [8] and in assay [9] was more than 100 µM in each case.

In the case of `CC/C(=N\NS(=O)(=O)c1ccccc1)c1ccccc1`, the TGI in assay [1], in assay [2], in assay [3], in assay [4], in [5] and in assay [6] was more than 100 µM in each case. Further, the TGI in [7], in [8] and in assay [9] was more than 100 µM throughout.

Consider `C[n+]1c2ccccc2cc2c(CNC(CCCN=C(N)N)C(=O)O)cccc21` (centres undefined), for which the GI50 in [1] was 0.394 µM; in assay [4], 6.15 µM; in [5] it was 0.486 µM; in [6], 0.343 µM; in assay [7], 0.327 µM; in [9], 2.86 µM. Further, the TGI is 0.846 µM and 1.47 µM in [1]; 1.92 µM in assay [2]; 1.78 µM in assay [3]; 17.9 µM in assay [4]; 1.83 µM and 2.05 µM in [5]; 1.26 µM and 1.07 µM in [6]. For the same compound, the TGI in assay [7] is 0.679 µM and 1.56 µM; in assay [8], 0.852 µM; in assay [9], 15.1 µM.

For the compound `Cc1ccccc1Nc1nc2c(s1)C(=O)c1ccccc1C2=O`, the TGI was found to be 13 µM in assay [1]; 5.27 µM in assay [2]; 6.65 µM in assay [3]; 38 µM in [4]; 14.6 µM in assay [5]; 6.66 µM in assay [6]. The figures for the TGI in [7], in assay [8] and in assay [9] were 18 µM, more than 24.3 µM and 12.1 µM, respectively.

Turning to `CCN(CC)CC(=O)N1CCc2c([nH]c3ccccc23)C1c1cccnc1` (centres undefined), the TGI in assay [1], in assay [2], in assay [3], in [4], in [5] and in [6] was more than 100 µM each time. For the same compound, the TGI in assay [7], in [8] and in assay [9] was more than 100 µM throughout.

Regarding `Cl[Si]1(Cl)Oc2ccccc2O[Si](Cl)(Cl)Oc2ccccc2O1`, the TGI is more than 100 µM in assay [1]; 36.5 µM in assay [2]; 54.5 µM in assay [3]; more than 100 µM in [4]; more than 100 µM in assay [5]; more than 100 µM in [6]. The TGI in assay [7] was more than 100 µM; in assay [8], 42.8 µM; in assay [9], 34.3 µM.

Regarding `Cc1cc(N(CCC#N)CCC#N)ccc1/C=C1N=C(/C=C/c2ccccc2)OC(=O)N\1`, the TGI in assay [1], in assay [2], in assay [3], in [4], in assay [5] and in assay [6] was more than 100 µM in each case. Moreover, the TGI in [7], in [8] and in [9] was more than 100 µM throughout.

On to `CC(=O)[O-].CC(=O)[O-].CC(=O)[O-].CC(=O)[O-].[Mo+2].[Mo+2]`, for which the GI50 in [1], in [2], in assay [3], in assay [4], in [5] and in assay [6] was more than 100 µM in each case. For the same compound, the GI50 in assay [7], in assay [8] and in [9] was more than 100 µM in each case. The TGI in assay [1], in assay [2], in assay [3], in assay [4], in [5] and in assay [6] was more than 100 µM each time. For the same compound, the concentration for total growth inhibition (TGI) in assay [7], in [8] and in assay [9] was more than 100 µM in each case.

For `C#CCC(N)(CO)C(=O)O` (centres undefined), the TGI in assay [1], in [2], in [3], in assay [4], in assay [5] and in [6] was more than 100 µM each time. The TGI in assay [7], in assay [8] and in assay [9] was more than 100 µM throughout.

With `CC(=O)[CH-]C(C)=O.[CH2-]C.[CH2-]C.[Tl+3]`, the GI50 in [1], in assay [2], in assay [3], in assay [4], in assay [5] and in [6] was more than 100 µM in each case. In addition, the GI50 in assay [7], in assay [8] and in assay [9] was more than 100 µM throughout. Moreover, the TGI in [1], in [2], in [3], in assay [4], in assay [5] and in assay [6] was more than 100 µM in each case. Also, the TGI in [7], in assay [8] and in [9] was more than 100 µM in each case.

Turning to `Cc1ccc(S(=O)(=O)N/N=C(\c2nc3ccc([N+](=O)[O-])cc3[nH]c2=O)C(O)c2ccccc2Cl)cc1` (centres undefined), the TGI in [1], in [2], in [3], in assay [4], in [5] and in assay [6] was more than 100 µM each time. In addition, the TGI in assay [7], in [8] and in [9] was more than 100 µM in each case.

For `NC(=O)/C=C/C(=O)O`, the TGI in assay [1], in [2], in [3], in assay [4], in [5] and in [6] was more than 5000 µM in each case. Moreover, the TGI in [7], in assay [8] and in assay [9] was more than 5000 µM in each case.

Take `COc1cccc(/C=C2\CCC(C)(CN(C)C)C2=O)c1` (centres undefined): the total growth inhibition concentration (TGI) in assay [1] was more than 100 µM; in [2], more than 100 µM; in assay [3], more than 100 µM; in assay [5], more than 100 µM; in assay [6], more than 100 µM; in [7], 68.1 µM. Further, the TGI in assay [8] and in [9] was more than 100 µM each time.

For the compound `CNC(SC)=C1C(=O)OC(C)(C)OC1=O`, the TGI in assay [1] was more than 100 µM; in assay [2] it was more than 100 µM; in assay [3] it was 38.5 µM; in [4] it was more than 100 µM; in assay [5], more than 100 µM; in assay [6], more than 100 µM. Moreover, the total growth inhibition concentration (TGI) in assay [7], in assay [8] and in assay [9] was more than 100 µM throughout.

Take `O=C/C(=C(/Cl)c1ccc(O)cc1)c1ccccc1`: the TGI in [1] is 77.8 µM; in [2], 46.9 µM; in [3], more than 68 µM; in assay [4] it was 85.8 µM; in [5] it was 50.2 µM; in assay [6], 37.2 µM. Also, the TGI in [7] is more than 63 µM; in assay [8], more than 69.4 µM; in assay [9], more than 57.1 µM.

Take `CCCCCCCCCCCCCC(=O)OCC1OC(=O)CC1O` (centres undefined): the TGI in assay [1], in assay [2], in assay [3], in [4], in [5] and in [6] was more than 100 µM in each case. Besides, the figures for the TGI in [7], in [8] and in assay [9] were more than 100 µM, more than 100 µM and 47.9 µM, respectively.

As usually defined, the TGI is the concentration at which net growth stops. As a reminder, the GI50 is the concentration that inhibits growth by half.
